Experimental data reported in patent US12447153B2, “HER2 mutation inhibitors” (Array BioPharma Inc., priority 2021, dated 2025).

Key:
EGFR = EGFR (Homo sapiens (Human), UniProt P00533); test: ErbB Enzyme Assay (HTRF KinEASE-TK), Assay 3; format: biochemical
Procedure: The kinases were incubated with 250 nM TK-substrate biotin (CisBio, part of cat #62TKOPEC) at 1 mM ATP along with test compounds in a buffer consisting of 25 mM HEPES, pH 7.4, 10 mM MgCl2, 0.01% Triton X-100, and 2% DMSO in a volume of 8 μL. […] After 30-minute incubation at 22° C., the reaction was quenched by adding 8 μL of quench solution containing 62.5 nM Sa-XL665 and 0.25×TK-Ab-Cryptate in HTRF detection buffer (all from CisBio, part of cat #62TKOPEC). […] A 4-parameter logistic curve was fit to the POC values as a function of the concentration of compound, and the IC50 value was the point where the best-fit curve crossed 50 POC.

[1] = molecular target: ErbB2 with Exon 20 YVMA insertion (HER2-YVMA) (Homo sapiens (Human), UniProt P04626, INS775YVMA); test: Cellular Phosphorylation Assay, Assay 4 (constitutive ErbB2 phosphorylation, NIH 3T3 cells); format: cell-based
Procedure: (§1) NIH 3T3 cells were engineered to express ErbB2 with Exon 20 YVMA insertion (HER2-YVMA (SEQ ID NO: 2); Assay 4) or EGFR wild type (EGFR WT; Assay 5) with constructs obtained from GenScript and grown in DMEM supplemented with 10% fetal bovine serum and 15 μg/ml blasticidin. […] Serially diluted compounds were added to the plates for 1 hour at 37° C./5% CO2. EGFR WT cells were stimulated with 100 ng/ml rEGF for an additional 10 minutes at 37° C./5% CO2.
(§2) After compound incubation, medium was removed from the cells, which were then fixed in 3.7% formaldehyde in PBS at room temperature for 20 minutes. Following a wash with PBS, cells were permeabilized with 100% methanol at room temperature for 10 minutes. Cells were then washed with PBS/0.05% Tween-20 and blocked with Odyssey blocking buffer (LI-COR Biosciences) for at least 1 hour at room temperature. Antibodies to phosphorylated ErbB2 (Y1196, Cell Signaling #6942) or phosphorylated EGFR (Y1068, Cell Signaling #3777) and GAPDH (Millipore #MAB374) were added to the cells in blocking buffer containing 0.05% azide and incubated overnight at 4° C. After washing with PBS/0.05% Tween-20, the cells were incubated with fluorescently labeled secondary anti-rabbit antibody (LiCOR, IRDye 800CW #926-32211) and anti-mouse antibody (Molecular Probes, Alexa Fluor 680 #A21058) for 1 hour at room temperature in the dark. Cells were then washed and analyzed for fluorescence at both wavelengths using the Odyssey Infrared Imaging System (LI-COR Biosciences). Phosphorylated ErbB2 and EGFR signal was normalized to GAPDH signal to generate curves and calculate IC50 values.

EGFR wild type (EGFR WT) = EGFR wild type (EGFR WT) (Homo sapiens (Human), UniProt P00533); test: Cellular Phosphorylation Assay, Assay 5 (EGF-stimulated EGFR phosphorylation, NIH 3T3 cells); format: cell-based
Procedure: as §1, §2

ErbB2 WT = ErbB2 WT (Homo sapiens (Human), UniProt P04626); test: ErbB Enzyme Assay (HTRF KinEASE-TK), Assay 2; format: biochemical
Procedure: The kinases were incubated with 250 nM TK-substrate biotin (CisBio, part of cat #62TKOPEC) at 1 mM ATP along with test compounds in a buffer consisting of 25 mM HEPES, pH 7.4, 10 mM MgCl2, 0.01% Triton X-100, and 2% DMSO in a volume of 8 μL. […] After 30-minute incubation at 22° C., the reaction was quenched by adding 8 μL of quench solution containing 62.5 nM Sa-XL665 and 0.25×TK-Ab-Cryptate in HTRF detection buffer (all from CisBio, part of cat #62TKOPEC).

[2] = cellular ErbB2 YVMA phosphorylation
[3] = cellular EGFR WT phosphorylation, EGF-stimulated
[4] = EGF-stimulated EGFR WT phosphorylation

Chain of ErbB2 with Exon 20 YVMA insertion (HER2-YVMA) (P04626 other isoform, or with tags, fused parts or gaps ins YVMA behind 775): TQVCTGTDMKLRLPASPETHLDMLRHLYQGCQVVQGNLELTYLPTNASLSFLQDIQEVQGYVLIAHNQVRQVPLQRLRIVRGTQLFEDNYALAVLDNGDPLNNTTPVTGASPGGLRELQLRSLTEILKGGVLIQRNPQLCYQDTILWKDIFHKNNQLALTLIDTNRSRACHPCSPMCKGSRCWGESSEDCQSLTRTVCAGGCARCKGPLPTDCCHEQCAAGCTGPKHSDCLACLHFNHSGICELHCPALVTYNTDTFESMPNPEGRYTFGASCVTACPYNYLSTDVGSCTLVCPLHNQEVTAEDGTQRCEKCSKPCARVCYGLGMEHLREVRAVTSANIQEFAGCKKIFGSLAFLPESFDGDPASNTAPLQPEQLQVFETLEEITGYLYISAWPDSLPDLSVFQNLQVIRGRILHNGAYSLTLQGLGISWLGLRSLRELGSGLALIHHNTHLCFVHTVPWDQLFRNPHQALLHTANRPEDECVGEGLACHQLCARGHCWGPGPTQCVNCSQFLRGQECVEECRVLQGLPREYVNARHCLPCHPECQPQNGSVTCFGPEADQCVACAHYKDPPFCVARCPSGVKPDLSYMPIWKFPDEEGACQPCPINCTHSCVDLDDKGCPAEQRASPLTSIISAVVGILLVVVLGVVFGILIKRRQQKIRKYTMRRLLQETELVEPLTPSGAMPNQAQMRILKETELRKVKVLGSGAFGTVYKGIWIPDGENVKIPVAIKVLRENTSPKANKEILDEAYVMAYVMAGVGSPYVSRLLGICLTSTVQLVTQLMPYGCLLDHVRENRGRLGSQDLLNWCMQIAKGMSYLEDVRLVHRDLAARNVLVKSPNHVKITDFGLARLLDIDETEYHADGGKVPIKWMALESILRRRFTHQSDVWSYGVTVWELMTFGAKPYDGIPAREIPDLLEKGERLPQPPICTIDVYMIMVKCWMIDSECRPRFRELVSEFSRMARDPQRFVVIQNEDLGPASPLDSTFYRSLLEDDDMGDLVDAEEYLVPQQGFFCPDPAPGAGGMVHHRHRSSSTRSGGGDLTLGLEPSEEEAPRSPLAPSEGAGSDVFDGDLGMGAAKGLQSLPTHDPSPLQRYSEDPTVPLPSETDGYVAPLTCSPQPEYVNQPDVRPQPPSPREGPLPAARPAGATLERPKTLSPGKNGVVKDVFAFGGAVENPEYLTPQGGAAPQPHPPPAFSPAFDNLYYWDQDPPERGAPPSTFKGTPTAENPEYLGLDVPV
Chain of EGFR wild type (EGFR WT) (P00533 25-1210): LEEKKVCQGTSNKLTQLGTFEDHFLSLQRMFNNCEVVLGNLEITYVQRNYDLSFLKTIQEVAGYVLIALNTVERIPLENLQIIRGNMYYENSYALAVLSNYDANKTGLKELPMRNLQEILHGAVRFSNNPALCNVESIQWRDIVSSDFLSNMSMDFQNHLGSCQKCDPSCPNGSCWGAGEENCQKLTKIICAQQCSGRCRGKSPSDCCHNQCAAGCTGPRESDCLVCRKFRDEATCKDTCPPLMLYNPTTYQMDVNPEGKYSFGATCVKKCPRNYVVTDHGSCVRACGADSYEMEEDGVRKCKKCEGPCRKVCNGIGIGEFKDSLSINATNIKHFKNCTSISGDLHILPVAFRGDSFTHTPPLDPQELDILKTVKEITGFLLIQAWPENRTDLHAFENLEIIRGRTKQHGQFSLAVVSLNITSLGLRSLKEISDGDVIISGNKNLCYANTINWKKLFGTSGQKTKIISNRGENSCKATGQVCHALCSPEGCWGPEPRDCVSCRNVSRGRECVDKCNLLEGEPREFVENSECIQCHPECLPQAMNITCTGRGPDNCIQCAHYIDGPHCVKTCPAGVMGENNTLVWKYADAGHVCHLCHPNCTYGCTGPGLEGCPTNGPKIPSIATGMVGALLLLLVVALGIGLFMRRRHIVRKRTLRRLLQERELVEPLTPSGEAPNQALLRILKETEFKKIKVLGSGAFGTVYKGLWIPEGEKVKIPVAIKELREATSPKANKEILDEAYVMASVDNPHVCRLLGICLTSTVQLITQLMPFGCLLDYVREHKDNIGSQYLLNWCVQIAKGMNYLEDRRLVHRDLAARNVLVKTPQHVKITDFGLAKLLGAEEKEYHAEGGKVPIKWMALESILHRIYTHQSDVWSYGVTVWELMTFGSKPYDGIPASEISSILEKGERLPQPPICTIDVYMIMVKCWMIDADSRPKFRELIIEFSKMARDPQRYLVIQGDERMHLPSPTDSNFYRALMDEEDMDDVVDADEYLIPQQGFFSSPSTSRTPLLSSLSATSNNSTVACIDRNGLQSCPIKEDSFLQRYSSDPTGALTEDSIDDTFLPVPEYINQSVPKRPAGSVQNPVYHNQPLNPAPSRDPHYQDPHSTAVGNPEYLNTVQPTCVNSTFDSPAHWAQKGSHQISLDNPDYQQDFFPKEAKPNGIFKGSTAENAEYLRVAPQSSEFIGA
Chain of EGFR (P00533 25-1210): as above
Chain of ErbB2 WT (P04626 23-1255): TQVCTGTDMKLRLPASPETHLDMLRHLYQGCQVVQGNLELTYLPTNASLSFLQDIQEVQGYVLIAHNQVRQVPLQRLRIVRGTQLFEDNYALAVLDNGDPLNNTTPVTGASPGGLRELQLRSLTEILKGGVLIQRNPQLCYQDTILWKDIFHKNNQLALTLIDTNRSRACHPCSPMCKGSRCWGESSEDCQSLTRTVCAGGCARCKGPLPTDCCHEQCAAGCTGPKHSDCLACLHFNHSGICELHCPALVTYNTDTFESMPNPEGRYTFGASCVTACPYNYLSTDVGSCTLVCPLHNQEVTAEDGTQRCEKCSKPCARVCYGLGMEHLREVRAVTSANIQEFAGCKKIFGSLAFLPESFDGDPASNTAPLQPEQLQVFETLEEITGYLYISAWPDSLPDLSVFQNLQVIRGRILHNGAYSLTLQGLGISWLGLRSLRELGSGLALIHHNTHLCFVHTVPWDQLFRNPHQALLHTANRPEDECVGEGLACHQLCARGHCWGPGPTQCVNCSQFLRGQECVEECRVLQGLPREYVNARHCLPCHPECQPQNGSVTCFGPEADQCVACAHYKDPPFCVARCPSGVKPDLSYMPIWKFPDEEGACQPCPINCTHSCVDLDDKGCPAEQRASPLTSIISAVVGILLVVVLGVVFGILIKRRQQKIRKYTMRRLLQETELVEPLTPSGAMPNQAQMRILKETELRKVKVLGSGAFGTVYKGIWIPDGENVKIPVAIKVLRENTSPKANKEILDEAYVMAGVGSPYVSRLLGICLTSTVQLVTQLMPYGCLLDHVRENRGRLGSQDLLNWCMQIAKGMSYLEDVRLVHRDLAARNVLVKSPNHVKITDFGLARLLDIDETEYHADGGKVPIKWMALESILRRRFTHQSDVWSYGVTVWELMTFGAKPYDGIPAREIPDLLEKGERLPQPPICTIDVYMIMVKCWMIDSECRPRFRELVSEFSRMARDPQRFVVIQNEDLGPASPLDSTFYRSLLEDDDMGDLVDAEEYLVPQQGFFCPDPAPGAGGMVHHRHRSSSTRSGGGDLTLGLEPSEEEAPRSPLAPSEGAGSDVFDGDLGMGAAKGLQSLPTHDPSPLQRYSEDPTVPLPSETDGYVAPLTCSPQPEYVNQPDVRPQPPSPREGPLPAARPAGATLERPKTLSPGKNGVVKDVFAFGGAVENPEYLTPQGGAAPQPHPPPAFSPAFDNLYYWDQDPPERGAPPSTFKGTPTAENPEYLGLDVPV

SMILES | IC50 (EGFR; EGFR enzyme assay) [nM] | IC50 [1, 2] [nM] | IC50 (EGFR wild type (EGFR WT); [3]) [nM] | IC50 (ErbB2 WT; ErbB2 WT enzyme assay) [nM] | IC50 (EGFR; EGFR enzyme) [nM] | IC50 ([1]; ErbB2 YVMA phosphorylation) [nM] | IC50 (EGFR wild type (EGFR WT); [4]) [nM] | IC50 (ErbB2 WT; ErbB2 WT enzyme) [nM]
C=CC(=O)N1C[C@@H]2CC[C@H]1CN2c1ccc2ncnc(Nc3cc(Cl)c(Oc4ccn5ncnc5c4)cc3F)c2n1 [Example 321] | 86.4 | 3.8 | 124 | 4.6 |  |  |  | 
C=CC(=O)N1CC[C@H]2C[C@@H]1CN2c1ccc2ncnc(Nc3ccc(Oc4cnc5c(c4)ncn5C)c(C)c3F)c2n1 [Example 237, 1-((1R,5S)-6-(4-((2-fluoro-3-methyl-4-((3-methyl-3H-imidazo[4,5-b]pyridin-6-yl)oxy)phenyl)amino)pyrido[3,2-d]pyrimidin-6-yl)-2,6-diazabicyclo[3.2.1]octan-2-yl)prop-2-en-1-one] |  |  |  |  | ≥ 10000 | 256 | ≥ 5000 | 1330
C=CC(=O)N1[C@@H](C)CN(c2ccc3ncnc(Nc4cc(C)c(Oc5ccc6c(c5)ncn6C)cc4F)c3n2)C[C@@H]1C [Example 257] | ≥ 10000 | 115 | ≥ 5000 | 54.2 |  |  |  | 
C=CC(=O)N1CCN(c2ccc3ncnc(Nc4cc(C)c(Oc5ccn6ncnc6c5)cc4F)c3n2)C[C@@H]1C(F)F (racemic) [Example 312] | 892 | 13.4 | 312 | 23.8 |  |  |  | 
Cc1c(Oc2ccn3ncnc3c2)ccc(Nc2ncnc3ccc(N4CCN(C(=O)C56CC5C6)C(C)(C)C4)nc23)c1F (centres unmarked) [Example 186, (4-(4-((4-([1,2,4]triazolo[1,5-a]pyridin-7-yloxy)-2-fluoro-3-methylphenyl)amino)pyrido[3,2-d]pyrimidin-6-yl)-2,2-dimethylpiperazin-1-yl)(bicyclo[1.1.0]butan-1-yl)methanone] |  |  |  |  |  | 408 | ≥ 5000 | 69.1
C=CS(=O)(=O)Nc1ccc2ncnc(Nc3ccc(Oc4ccc5c(c4)ncn5C)c(C)c3)c2n1 [Example 20, N-(4-((3-methyl-4-((1-methyl-1H-benzo[d]imidazol-5-yl)oxy)phenyl)amino)pyrido[3,2-d]pyrimidin-6-yl)ethenesulfonamide] |  |  |  |  | 340 | 1740 |  | 47.9
C=CC(=O)Nc1ccc2ncnc(Nc3ccc(Oc4ccc5c(c4)ncn5C)c(C)c3)c2n1 [Example 18, N-(4-((3-methyl-4-((1-methyl-1H-benzo[d]imidazol-5-yl)oxy)phenyl)amino)pyrido[3,2-d]pyrimidin-6-yl)acrylamide] |  |  |  |  | 369 | 443 |  | 42.3

Other lines, results leading:

IC50 (EGFR; EGFR enzyme assay) [nM] | IC50 [1, 2] [nM] | IC50 (EGFR wild type (EGFR WT); [3]) [nM] | IC50 (ErbB2 WT; ErbB2 WT enzyme assay) [nM] | IC50 (EGFR; EGFR enzyme) [nM] | IC50 ([1]; ErbB2 YVMA phosphorylation) [nM] | IC50 (EGFR wild type (EGFR WT); [4]) [nM] | IC50 (ErbB2 WT; ErbB2 WT enzyme) [nM] | SMILES
≥ 10000 | 36.6 | ≥ 5000 | 104 |  |  |  |  | C=CC(=O)N1CC2(CCN(c3ccc4ncnc(Nc5ccc(Oc6ccn7ncnc7c6)c(C)c5F)c4n3)C2)C1 [Example 307]
 |  |  |  | 358 | 2.8 | 56.8 | 9.8 | C=CC(=O)N1CCN(c2ccc3ncnc(Nc4ccc(Oc5ccn6ncnc6c5)c(Cl)c4F)c3n2)C[C@H]1C [Example 91, (R)-1-(4-(4-((4-([1,2,4]triazolo[1,5-a]pyridin-7-yloxy)-3-chloro-2-fluorophenyl)amino)pyrido[3,2-d]pyrimidin-6-yl)-2-methylpiperazin-1-yl)prop-2-en-1-one]
≥ 10000 | 62.1 | ≥ 5000 | 145 |  |  |  |  | C=CC(=O)N1CC[C@H](c2ccc3ncnc(Nc4ccc(Oc5cc(F)c6c(c5)ncn6C)c(C)c4)c3n2)CC1(C)C (racemic) [Example 279]
4120 | 9 | 3200 | 27.9 |  |  |  |  | C=CC(=O)N1CCN(c2ccc3ncnc(Nc4ccc(Oc5cnc6c(c5)ncn6C)c(C)c4)c3n2)CC1(C)C [Example 250]
 | 73.7 | 1420 | 103 |  |  |  |  | CC#CC(=O)N1C[C@@H]2CC[C@H]1CN2c1ccc2ncnc(Nc3ccc(Oc4ccn5ncnc5c4)c(C)c3F)c2n1 [Example 329]
 |  |  |  | 466 | 250 |  | 83.2 | C=CS(=O)(=O)N(C)c1ccc2ncnc(Nc3ccc(Oc4ccc5c(c4)ncn5C)c(C)c3)c2n1 [Example 21, N-methyl-N-(4-((3-methyl-4-((1-methyl-1H-benzo[d]imidazol-5-yl)oxy)phenyl)amino)pyrido[3,2-d]pyrimidin-6-yl)ethenesulfonamide]
